Data on one compound can be found in article PMC8645336, “Benchmarking a highly selective USP30 inhibitor for enhancement of mitophagy and pexophagy” (Life Science Alliance, 2021).

Assay [1] concerns the target USP6 (Homo sapiens, UniProt P35125). The assay is described as follows: biochemical. Details: Ubiquigent DUB profiler selectivity panel, remaining enzyme activity as % of control. The note with it: read-out: % of control remaining. The method in brief: (§1)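 CMPD-39 selectivity was profiled at 1-100 μM across >40 DUBs. Cellular engagement used 2 h CMPD-39 pretreatment, then HA-Ub-PA probe for 10 min at 37°C, with USP30 band shift on immunoblot. TOMM20 ubiquitylation was blotted in YFP-PRKN hTERT-RPE1 cells after 1 h antimycin A/oligomycin A (1 μM each).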

Assay [2] deals with T1, VCPIP (Homo sapiens, UniProt Q96JH7).
T1 construct: gene VCPIP1
T1 sequence (Q96JH7 1-1222): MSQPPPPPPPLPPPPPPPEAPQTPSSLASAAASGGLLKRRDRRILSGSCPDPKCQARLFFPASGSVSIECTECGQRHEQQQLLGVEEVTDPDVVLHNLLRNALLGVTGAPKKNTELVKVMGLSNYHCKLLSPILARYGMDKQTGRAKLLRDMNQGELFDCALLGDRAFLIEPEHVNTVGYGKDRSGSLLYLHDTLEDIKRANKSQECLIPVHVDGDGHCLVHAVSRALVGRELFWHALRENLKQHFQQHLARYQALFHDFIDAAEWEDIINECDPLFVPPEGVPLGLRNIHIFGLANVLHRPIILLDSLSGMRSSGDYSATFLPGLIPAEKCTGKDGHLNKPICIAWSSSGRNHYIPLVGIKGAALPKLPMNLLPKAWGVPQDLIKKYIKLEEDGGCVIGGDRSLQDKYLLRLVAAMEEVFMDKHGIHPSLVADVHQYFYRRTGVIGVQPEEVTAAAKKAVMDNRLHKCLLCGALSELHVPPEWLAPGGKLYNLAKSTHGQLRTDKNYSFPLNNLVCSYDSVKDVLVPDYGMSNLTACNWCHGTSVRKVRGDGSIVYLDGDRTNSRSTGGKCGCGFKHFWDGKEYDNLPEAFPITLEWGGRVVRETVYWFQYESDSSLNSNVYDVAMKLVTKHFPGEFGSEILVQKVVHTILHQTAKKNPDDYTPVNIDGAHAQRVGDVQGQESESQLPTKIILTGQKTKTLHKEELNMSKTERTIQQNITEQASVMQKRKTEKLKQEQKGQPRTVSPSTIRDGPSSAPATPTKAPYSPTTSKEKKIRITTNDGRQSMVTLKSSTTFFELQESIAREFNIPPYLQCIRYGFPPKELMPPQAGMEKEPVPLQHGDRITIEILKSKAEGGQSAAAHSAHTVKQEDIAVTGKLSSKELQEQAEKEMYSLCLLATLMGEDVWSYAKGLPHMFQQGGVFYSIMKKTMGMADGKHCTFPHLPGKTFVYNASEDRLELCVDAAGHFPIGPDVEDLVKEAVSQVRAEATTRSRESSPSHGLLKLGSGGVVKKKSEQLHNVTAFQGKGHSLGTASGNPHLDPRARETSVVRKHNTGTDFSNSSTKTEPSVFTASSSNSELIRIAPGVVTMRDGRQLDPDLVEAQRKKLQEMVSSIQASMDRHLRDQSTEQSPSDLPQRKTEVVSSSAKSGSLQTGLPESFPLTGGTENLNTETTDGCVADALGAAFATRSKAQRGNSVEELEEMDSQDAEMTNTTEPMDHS
The assay is described as follows: biochemical. The note with it: read-out: % of control remaining. More on the design: Ubiquigent DUB profiler selectivity panel, remaining enzyme activity as % of control. In short, it runs like this: as §1

USP6, sequence (P35125 whole entry): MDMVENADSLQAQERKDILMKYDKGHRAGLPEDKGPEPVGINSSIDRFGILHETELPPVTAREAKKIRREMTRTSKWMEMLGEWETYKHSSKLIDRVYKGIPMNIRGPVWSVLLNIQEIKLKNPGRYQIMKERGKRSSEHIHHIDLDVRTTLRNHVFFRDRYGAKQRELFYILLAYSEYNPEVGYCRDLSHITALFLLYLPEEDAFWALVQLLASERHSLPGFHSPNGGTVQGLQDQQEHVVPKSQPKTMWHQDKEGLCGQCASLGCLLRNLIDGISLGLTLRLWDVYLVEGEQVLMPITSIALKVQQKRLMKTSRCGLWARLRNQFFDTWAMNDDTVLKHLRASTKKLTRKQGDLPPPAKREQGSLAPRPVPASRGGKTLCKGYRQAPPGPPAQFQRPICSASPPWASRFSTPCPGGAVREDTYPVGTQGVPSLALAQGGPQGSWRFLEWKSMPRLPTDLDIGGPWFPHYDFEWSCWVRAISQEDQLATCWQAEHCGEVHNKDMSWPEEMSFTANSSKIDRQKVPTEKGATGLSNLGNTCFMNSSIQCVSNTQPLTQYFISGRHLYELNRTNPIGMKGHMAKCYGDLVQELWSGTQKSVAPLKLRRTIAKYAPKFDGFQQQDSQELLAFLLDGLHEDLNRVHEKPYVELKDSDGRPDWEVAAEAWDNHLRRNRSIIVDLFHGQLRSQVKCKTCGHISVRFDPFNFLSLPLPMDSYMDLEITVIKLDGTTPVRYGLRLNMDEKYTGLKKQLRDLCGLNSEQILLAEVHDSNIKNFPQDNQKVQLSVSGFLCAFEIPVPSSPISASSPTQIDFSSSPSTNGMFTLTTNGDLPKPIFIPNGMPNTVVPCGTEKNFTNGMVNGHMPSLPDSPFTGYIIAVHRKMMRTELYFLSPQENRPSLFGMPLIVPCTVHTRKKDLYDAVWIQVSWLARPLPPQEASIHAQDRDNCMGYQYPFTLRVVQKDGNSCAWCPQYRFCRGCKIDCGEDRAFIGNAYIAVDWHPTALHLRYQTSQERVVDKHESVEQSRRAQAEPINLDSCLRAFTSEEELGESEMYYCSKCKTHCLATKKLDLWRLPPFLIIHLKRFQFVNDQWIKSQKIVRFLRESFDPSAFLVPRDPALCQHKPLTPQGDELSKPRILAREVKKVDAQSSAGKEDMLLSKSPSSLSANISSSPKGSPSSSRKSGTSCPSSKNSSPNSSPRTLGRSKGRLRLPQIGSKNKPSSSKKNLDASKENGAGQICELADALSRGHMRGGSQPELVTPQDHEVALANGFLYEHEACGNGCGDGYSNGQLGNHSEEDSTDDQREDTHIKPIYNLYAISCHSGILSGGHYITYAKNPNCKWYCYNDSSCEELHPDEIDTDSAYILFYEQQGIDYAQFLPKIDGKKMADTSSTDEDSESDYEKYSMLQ

Turning to `CC(C)(C)NS(=O)(=O)c1ccc(NC(=O)[C@H](Cc2ccccc2)NC(=O)c2ccc(F)cc2)cc1` [compound 39, CMPD-39], in assay [1], the remaining activity at 1 µM is 101%, the remaining activity at 10 µM was 96.8% and the remaining activity at 100 µM came out at 90.6%. In assay [2], the remaining activity at 1 µM stood at 109%, the remaining activity at 10 µM stood at 96.5% and the remaining activity at 100 µM stood at 95.6%.
